25 molecules from patent publication US9884818B2, “Sulphamoylpyrrolamide derivatives and the use thereof as medicaments for the treatment of hepatitis B” (Janssen Sciences Ireland UC, priority 2013, dated 2018) can be followed below.

Data set [1] deals with HBV. Put plainly: Anti-HBV activity, HepG2.2.15 stable transfected cell line, HBV DNA from secreted virions by realtime PCR. In kind it is cell-based. The note with it: Hepatitis B virus, HepG2.2.15, 144 h, HepG2.2.15 cells, 6 days of treatment, HBV DNA from secreted virions; read-out: HepG2 2.15 EC50.
Data set [2] concerns HBV. Put plainly: Anti-HBV activity, HepG2.117 inducibly HBV producing cell line (Tet-off), intracellular HBV DNA by realtime PCR. In kind it is cell-based. To be noted: Hepatitis B virus, HepG2.117, 72 h, HepG2.117 cells, 3 days of treatment, intracellular HBV DNA; read-out: HepG2 117 EC50.
Data set [3] is described as follows: Cytotoxicity in HepG2 cells, Resazurin viability assay. The note with it: human, HepG2 cells, HepG2 4 days CC50 (μM), incubated for 4 days, Resazurin assay. On the technique in general: Resazurin is reduced to fluorescent resorufin, in cell work by metabolically active cells.

For `CC[C@@H](NS(=O)(=O)c1cc(C(=O)Nc2ccc(F)c(C#N)c2)n(C)c1)C(F)(F)F` [Compound 240, N-(3-Cyano-4-fluorophenyl)-1-methyl-4-{[(1R)-1-(trifluoromethyl)-propyl]sulfamoyl}-1H-pyrrole-2-carboxamide], the EC50 in data set [1] was determined as 20 nM; in data set [2] it was 50 nM. In data set [3], this molecule showed a CC50 at 4 days above 25 µM.
In the case of `Cn1cc(S(=O)(=O)NC2(C(F)(F)F)CCC2)cc1C(=O)Nc1ccc(F)c(C#N)c1` [Compound 241, N-(3-Cyano-4-fluorophenyl)-1-methyl-4-{[1-(trifluoromethyl)cyclo-butyl]sulfamoyl}-1H-pyrrole-2-carboxamide], the EC50 in data set [1] and in data set [2] was 10 nM in each case. The CC50 at 4 days in data set [3] was above 25 µM.
For the molecule `Cn1cc(S(=O)(=O)NC(CF)CF)cc1C(=O)Nc1ccc(F)c(C#N)c1` [Compound 242, N-(3-Cyano-4-fluorophenyl)-4-{[2-fluoro-1-(fluoromethyl)ethyl]sulfamoyl}-1-methyl-1H-pyrrole-2-carboxamide], the EC50 in data set [1] was determined as 200 nM; in data set [2] it was 300 nM. Moreover, the CC50 at 4 days in data set [3] was above 25 µM.
For `Cc1c(S(=O)(=O)NC2(C)COC2)cn(C)c1C(=O)Nc1ccc(F)c(Cl)c1F` [Compound 243, N-(3-Chloro-2,4-difluorophenyl)-1,3-dimethyl-4-[(3-methyloxetan-3-yl)sulfamoyl]-1H-pyrrole-2-carboxamide], the results for the EC50 in data set [1] and in data set [2] were 110 nM and 100 nM, respectively. The CC50 at 4 days in data set [3] is above 25 µM.
For `Cn1cc(S(=O)(=O)NC2(C)CC2)cc1C(=O)Nc1ccc(F)c(C#N)c1` [Compound 244, N-(3-cyano-4-fluoro-phenyl)-1-methyl-4-[(1-methylcyclopropyl)-sulfamoyl]pyrrole-2-carboxamide] the same measures were 140 nM, 530 nM and above 25 µM.
For `Cn1cc(S(=O)(=O)NC2(C)CC(F)(F)C2)cc1C(=O)Nc1ccc(F)c(C#N)c1` [Compound 245, N-(3-cyano-4-fluoro-phenyl)-4-[(3,3-difluoro-1-methyl-cyclobutyl)sulfamoyl]-1-methyl-1H-pyrrole-2-carboxamide] the same measures were 40 nM, 40 nM and above 25 µM.
Regarding `CCC(C)(NS(=O)(=O)c1cc(C(=O)Nc2ccc(F)c(C#N)c2)n(C)c1)C(F)(F)F` (stereo not drawn) [Compound 246, N-(3-cyano-4-fluoro-phenyl)-1-methyl-4-{[1-methyl-1-(trifluoro-methyl)propyl]sulfamoyl}-1H-pyrrole-2-carboxamide], the EC50 in data set [1] worked out at 50 nM; in data set [2] it was 60 nM. The CC50 at 4 days in data set [3] is above 25 µM.
On the same counts, the results for `Cn1cc(S(=O)(=O)NC2(C(F)(F)F)CCOCC2)cc1C(=O)Nc1ccc(F)c(C#N)c1` [Compound 247, N-(3-cyano-4-fluoro-phenyl)-1-methyl-4-{[4-(trifluoromethyl)tetrahydropyran-4-yl]sulfamoyl}-1H-pyrrole-2-carboxamide] are 30 nM, 30 nM and above 25 µM.
For `CCC(CC)(NS(=O)(=O)c1cc(C(=O)Nc2ccc(F)c(C#N)c2)n(C)c1)C(F)(F)F` [Compound 248, N-(3-cyano-4-fluoro-phenyl)-4-{[1-ethyl-1-(trifluoromethyl)propyl]sulfamoyl}-1-methyl-1H-pyrrole-2-carboxamide], the EC50 was 30 nM in data set [1] and 70 nM in data set [2]. In data set [3], this molecule yielded a half-maximal cytotoxic concentration (CC50) at 4 days above 25 µM.
For `Cn1cc(S(=O)(=O)NC(C)(C)CF)cc1C(=O)Nc1ccc(F)c(C#N)c1` [Compound 249, N-(3-cyano-4-fluoro-phenyl)-4-[(2-fluoro-1,1-dimethyl-ethyl)sulfamoyl]-1-methyl-1H-pyrrole-2-carboxamide] the same measures were 70 nM, 180 nM and 1.7 µM.
As to `C[C@@H](NS(=O)(=O)c1cn(C)c(C(=O)Nc2cccc(Br)c2)c1Cl)C(F)(F)F` [Compound 250, N-(3-Bromophenyl)-3-chloro-1-methyl-4-{[(1R)-2,2,2-trifluoro-1-methylethyl]sulfamoyl}-1H-pyrrole-2-carboxamide], the EC50 in data set [1] was determined as 7 nM; in data set [2], 400 nM. In addition, in data set [3], half-maximal cytotoxicity (CC50 at 4 days) was put at 20 µM.
As for `Cn1cc(S(=O)(=O)NC2(C)COC2)c(F)c1C(=O)Nc1cccc(Br)c1` [Compound 251, N-(3-Bromophenyl)-3-fluoro-1-methyl-4-[(3-methyloxetan-3-yl)sulfamoyl]-1H-pyrrole-2-carboxamide], the EC50 in data set [1] came to 10 nM; in data set [2] it was 60 nM. The molecule also showed a CC50 at 4 days in data set [3] above 25 µM.
For `CC(NS(=O)(=O)c1cc(C(=O)Nc2ccc(F)c(Cl)c2F)n(C)c1)C(F)F` (stereo not drawn) [Compound 252, N-(3-chloro-2,4-difluoro-phenyl)-4-[(2,2-difluoro-1-methyl-ethyl)sulfamoyl]-1-methyl-1H-pyrrole-2-carboxamide] the same measures were 50 nM, 80 nM and above 25 µM.
For `Cn1cc(S(=O)(=O)NC2(C(F)(F)F)CC2)cc1C(=O)Nc1ccc(F)c(Cl)c1F` [Compound 253, N-(3-chloro-2,4-difluoro-phenyl)-1-methyl-4-{[1-(trifluoromethyl)-cyclopropyl]sulfamoyl}-1H-pyrrole-2-carboxamide] the same measures were 10 nM, 10 nM and above 25 µM.
For `Cn1cc(S(=O)(=O)NC(C)(C)C(F)(F)F)cc1C(=O)Nc1ccc(F)c(Cl)c1F` [Compound 254, N-(3-chloro-2,4-difluoro-phenyl)-1-methyl-4-[(2,2,2-trifluoro-1,1-dimethyl-ethyl)sulfamoyl]-1H-pyrrole-2-carboxamide], the EC50 in data set [1] and in data set [2] was 50 nM each time. In addition, the CC50 at 4 days in data set [3] was above 25 µM.
Turning to `Cn1cc(S(=O)(=O)NC2(C)CC2)cc1C(=O)Nc1ccc(F)c(Cl)c1F` [Compound 255, N-(3-chloro-2,4-difluoro-phenyl)-1-methyl-4-[(1-methylcyclopropyl)-sulfamoyl]-1H-pyrrole-2-carboxamide], the EC50 in data set [1] was determined as 90 nM; in data set [2], 100 nM. In addition, the CC50 at 4 days in data set [3] was above 25 µM.
With `Cn1cc(S(=O)(=O)NC2(C)CC(F)(F)C2)cc1C(=O)Nc1ccc(F)c(Cl)c1F` [Compound 256, N-(3-chloro-2,4-difluoro-phenyl)-4-[(3,3-difluoro-1-methyl-cyclo-butyl)sulfamoyl]-1-methyl-1H-pyrrole-2-carboxamide], the values for the EC50 in data set [1] and in data set [2] were 20 nM and 30 nM, respectively. Moreover, in data set [3], the CC50 at 4 days is above 25 µM.
For `CCC(C)(NS(=O)(=O)c1cc(C(=O)Nc2ccc(F)c(Cl)c2F)n(C)c1)C(F)(F)F` (stereo not drawn) [Compound 257, N-(3-chloro-2,4-difluoro-phenyl)-1-methyl-4-{[1-methyl-1-(trifluoro-methyl)propyl]sulfamoyl}-1H-pyrrole-2-carboxamide] the same measures were 80 nM, 90 nM and above 25 µM.
For `Cn1cc(S(=O)(=O)NC2(C(F)(F)F)CCOCC2)cc1C(=O)Nc1ccc(F)c(Cl)c1F` [Compound 258, N-(3-chloro-2,4-difluoro-phenyl)-1-methyl-4-[[1-(trifluoromethyl)-tetrahydropyran-4-yl]sulfamoyl]-1H-pyrrole-2-carboxamide] the same measures were 30 nM, 20 nM and above 25 µM.
Turning to `CCC(CC)(NS(=O)(=O)c1cc(C(=O)Nc2ccc(F)c(Cl)c2F)n(C)c1)C(F)(F)F` [Compound 259, N-(3-chloro-2,4-difluoro-phenyl)-4-[[1-ethyl-1-(trifluoromethyl)-propyl]sulfamoyl]-1-methyl-1H-pyrrole-2-carboxamide], the concentration for a half-maximal effect (EC50) in data set [1] and in data set [2] was 50 nM each time. In data set [3], this molecule registered a CC50 at 4 days above 25 µM.
Take `CC(CC(F)(F)F)NS(=O)(=O)c1cc(C(=O)Nc2ccc(F)c(Cl)c2F)n(C)c1` (stereo not drawn) [Compound 260, N-(3-chloro-2,4-difluoro-phenyl)-1-methyl-4-[(3,3,3-trifluoro-1-methylpropyl)sulfamoyl]-1H-pyrrole-2-carboxamide]: the concentration for a half-maximal effect (EC50) in data set [1] was determined as 70 nM; in data set [2], 90 nM. In addition, the CC50 at 4 days in data set [3] is above 25 µM.
For `Cn1cc(S(=O)(=O)NC(C)(C)CF)cc1C(=O)Nc1ccc(F)c(Cl)c1F` [Compound 261] the same measures were 40 nM, 130 nM and above 25 µM.
For `CC[C@H](NS(=O)(=O)c1cc(C(=O)Nc2ccc(F)c(Cl)c2F)n(C)c1)C(F)(F)F` [Compound 262, N-(3-chloro-2,4-difluoro-phenyl)-1-methyl-4-{[(1S)-1-(trifluoro-methyl)propyl]sulfamoyl}-1H-pyrrole-2-carboxamide] the same measures were 20 nM, 20 nM and above 25 µM.
On the same counts, the results for `Cn1cc(S(=O)(=O)NC2(C(F)(F)F)CCC2)cc1C(=O)Nc1ccc(F)c(Cl)c1F` [Compound 263, N-(3-chloro-2,4-difluoro-phenyl)-1-methyl-4-{[1-(trifluoromethyl)-cyclobutyl]sulfamoyl}-1H-pyrrole-2-carboxamide] are 5 nM, 8 nM and above 25 µM.
Take `Cn1cc(S(=O)(=O)NC(CF)CF)cc1C(=O)Nc1ccc(F)c(Cl)c1F` [Compound 264, N-(3-chloro-2,4-difluoro-phenyl)-4-{[2-fluoro-1-(fluoromethyl)-ethyl]sulfamoyl}-1-methyl-1H-pyrrole-2-carboxamide]: the EC50 in data set [1] amounted to 90 nM; in data set [2] it was 130 nM. The CC50 at 4 days in data set [3] was above 25 µM.

As usually defined, the EC50 is the concentration giving half of the maximal effect. As usually defined, the CC50 is the concentration at which the toxic effect on the cells reaches its halfway point. Read a high CC50 as lower toxicity to the cells.
